ChEMBL document CHEMBL1201862, “PubChem BioAssay data set” (2004)
Calls of active or inactive are those of the source.

What was measured:
[1] = Counterscreen for […] of the human trace amine associated receptor 1 (TAAR1): Fluorescence-based cell-based high throughput dose response assay to identify nonselective Ga16 agonists.; type: functional
[2] = target: T1, Trace amine-associated receptor 1 (Homo sapiens, UniProt Q96RJ0); assay: Fluorescence-based cell-based high throughput dose response assay to identify antagonists of the human trace amine associated receptor 1 (TAAR1).; type: functional
T1 sequence (Q96RJ0 whole entry): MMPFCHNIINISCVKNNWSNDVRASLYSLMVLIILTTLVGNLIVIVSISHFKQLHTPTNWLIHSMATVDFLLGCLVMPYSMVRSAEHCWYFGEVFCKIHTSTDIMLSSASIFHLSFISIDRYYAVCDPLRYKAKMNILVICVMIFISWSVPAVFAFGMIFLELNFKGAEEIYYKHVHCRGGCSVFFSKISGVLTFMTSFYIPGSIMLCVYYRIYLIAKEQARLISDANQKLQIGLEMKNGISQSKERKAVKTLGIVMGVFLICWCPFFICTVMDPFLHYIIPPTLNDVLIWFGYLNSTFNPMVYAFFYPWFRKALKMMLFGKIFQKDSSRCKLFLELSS

[3] = Counterscreen for antagonists of the human trace amine associated receptor 1 (hTAAR1): Fluorescence-based cell-based high throughput dose response assay to identify nonselective Ga16 antagonists.; type: functional
[4] = target: T1, Trace amine-associated receptor 1; assay: Counterscreen for antagonists of the human trace amine associated receptor 1 (hTAAR1): Fluorescence-based cell-based high throughput dose response assay to identify TAAR1 Agonists.; type: functional
[5] = HGIII-sPLA2 enzyme inhibition potency – biochemical, QFRET, IC50, dose response (AID 743457);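 note: green fluorescence rise as the enzyme cleaves BODIPY PC-A2 in liposomes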
Kallikrein-7 = Kallikrein-7 (Homo sapiens, UniProt P49862); assay: Fluorescence Intensity-based biochemical primary high throughput dose response assay to identify activators of kallikrein-7 (K7) zymogen.
Chain of Kallikrein-7 (P49862 whole entry): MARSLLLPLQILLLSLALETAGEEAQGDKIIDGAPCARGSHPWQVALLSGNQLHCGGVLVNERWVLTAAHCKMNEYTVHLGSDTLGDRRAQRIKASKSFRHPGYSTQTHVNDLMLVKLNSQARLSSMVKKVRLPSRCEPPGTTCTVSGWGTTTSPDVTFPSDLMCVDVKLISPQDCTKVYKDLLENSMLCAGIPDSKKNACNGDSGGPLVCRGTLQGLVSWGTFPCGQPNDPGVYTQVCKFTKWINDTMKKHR

Paired box protein Pax-8 = Paired box protein Pax-8 (Homo sapiens, UniProt Q06710); assay: PAX8 transcriptional activity inhibition in RMG-I – RMG-I cells, luciferase, cherry-pick, dose response (AID 687027); type: functional, cell-based;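 note: luciferase reporter driven by Pax8 target thyroperoxidase promoter measured by SteadyGlo luminescence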
Chain of Paired box protein Pax-8 (Q06710 whole entry): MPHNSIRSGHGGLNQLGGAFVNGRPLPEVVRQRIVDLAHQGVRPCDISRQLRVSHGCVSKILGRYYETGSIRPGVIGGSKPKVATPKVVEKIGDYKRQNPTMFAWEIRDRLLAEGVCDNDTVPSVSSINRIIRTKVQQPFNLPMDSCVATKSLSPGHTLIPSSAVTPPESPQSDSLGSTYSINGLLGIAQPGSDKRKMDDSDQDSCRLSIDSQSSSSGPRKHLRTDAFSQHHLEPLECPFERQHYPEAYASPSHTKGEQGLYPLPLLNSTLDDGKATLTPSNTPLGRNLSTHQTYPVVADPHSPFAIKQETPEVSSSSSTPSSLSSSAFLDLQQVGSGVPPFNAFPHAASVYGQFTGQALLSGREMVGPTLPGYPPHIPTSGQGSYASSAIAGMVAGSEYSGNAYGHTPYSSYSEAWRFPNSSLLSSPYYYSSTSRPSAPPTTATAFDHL

[6] = toxicity toward immortalized ovarian surface epithelium – cell-based, plate reader, dry powder samples, cytotoxicity control for PAX8 inhibitor project, dose response (AID 743045); type: functional
[7] = A2780 cell killing – plate reader, dry powder samples, cytotoxicity control, dose response (AID 743046); type: functional, cell-based
[8] = OVCAR-3 cell viability loss – plate reader, dry powder samples, PAX8 inhibitor project, dose response (AID 743044); type: functional, cell-based
[9] = IGROV1 cell killing – plate reader, dry powder samples, PAX8 inhibitor project, dose response (AID 743043); type: functional, cell-based; conditions: IGROV-1
[10] = OVCAR8 cell viability loss – plate reader, dry powder samples, PAX8 project, dose response (AID 743197); type: functional, cell-based; conditions: OVCAR-8
[11] = general mammalian cell viability loss – inhibitor set, cherry-pick, set 2, cytotoxicity control for miR-122 modulator project, dose response (AID 720697); type: functional, cell-based
[12] = target: NAD-dependent protein deacylase sirtuin-5, mitochondrial (Homo sapiens, UniProt Q9NXA8); assay: blockers of sirtuin-5 peptide desuccinylation – biochemical, fluorescence imaging, cherry-pick, set 6, dose response (AID 720597)
Chain of NAD-dependent protein deacylase sirtuin-5, mitochondrial (Q9NXA8 whole entry): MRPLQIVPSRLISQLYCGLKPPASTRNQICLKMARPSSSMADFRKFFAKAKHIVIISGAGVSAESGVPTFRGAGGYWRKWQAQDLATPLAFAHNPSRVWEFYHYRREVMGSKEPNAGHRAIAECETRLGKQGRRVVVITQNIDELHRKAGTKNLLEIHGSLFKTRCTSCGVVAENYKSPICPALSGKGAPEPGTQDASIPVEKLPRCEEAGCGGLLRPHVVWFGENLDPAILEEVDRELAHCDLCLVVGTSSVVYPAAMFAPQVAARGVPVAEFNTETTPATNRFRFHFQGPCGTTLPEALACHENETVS

[13] = HeLa cell viability loss – 24 h, dry powder, set 2, cytotoxicity control, dose response (AID 651774); type: functional, cell-based
[14] = rescue of ΔF508 CFTR function, airway epithelium – human bronchial epithelial cells, plate reader, cherry-pick, two tests, dose response (AID 743267); type: functional, cell-based
[15] = target: Endoplasmic reticulum aminopeptidase 1 (Homo sapiens, UniProt Q9NZ08); assay: inhibition of human ERAP1 enzyme activity – biochemical, cherry-pick, set 2, plate reader, dose response (AID 743314)
Chain of Endoplasmic reticulum aminopeptidase 1 (Q9NZ08 whole entry, the tested form may be a part): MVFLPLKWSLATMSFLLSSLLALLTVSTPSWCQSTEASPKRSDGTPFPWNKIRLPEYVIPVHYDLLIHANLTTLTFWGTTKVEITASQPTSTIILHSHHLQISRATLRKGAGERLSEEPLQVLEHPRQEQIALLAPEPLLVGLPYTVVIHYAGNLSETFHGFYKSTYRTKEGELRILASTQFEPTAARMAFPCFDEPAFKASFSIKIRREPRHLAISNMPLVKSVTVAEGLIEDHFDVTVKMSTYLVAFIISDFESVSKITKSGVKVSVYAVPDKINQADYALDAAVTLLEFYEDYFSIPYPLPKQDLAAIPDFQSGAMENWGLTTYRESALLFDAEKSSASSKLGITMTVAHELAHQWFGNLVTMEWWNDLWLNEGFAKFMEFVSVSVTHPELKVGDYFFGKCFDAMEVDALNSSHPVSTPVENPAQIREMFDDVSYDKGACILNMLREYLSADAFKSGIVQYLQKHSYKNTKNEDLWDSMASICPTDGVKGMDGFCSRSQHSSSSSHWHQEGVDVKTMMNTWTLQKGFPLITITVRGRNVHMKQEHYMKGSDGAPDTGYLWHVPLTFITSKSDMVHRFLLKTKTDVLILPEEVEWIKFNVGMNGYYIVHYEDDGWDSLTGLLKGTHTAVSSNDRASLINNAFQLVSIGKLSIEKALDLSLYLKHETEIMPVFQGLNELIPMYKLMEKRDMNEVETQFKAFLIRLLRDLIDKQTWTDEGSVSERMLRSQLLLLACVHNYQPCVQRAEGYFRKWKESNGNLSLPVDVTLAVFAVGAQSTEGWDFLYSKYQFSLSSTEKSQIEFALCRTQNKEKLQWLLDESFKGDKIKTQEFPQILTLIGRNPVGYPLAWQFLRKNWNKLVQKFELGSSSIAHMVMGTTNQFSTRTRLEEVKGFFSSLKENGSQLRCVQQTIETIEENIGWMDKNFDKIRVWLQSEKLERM

[16] = target: Oxysterols receptor LXR-beta (Homo sapiens, UniProt P55055); type: functional, cell-based;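 note: Cell-based luminescence dose-response assay of agonist activity at LXR, run as a confirmatory counterscreen to a daf-12 agonist screen; HEK293 cells with Gal4-LXR fusion and GAL4-driven luciferase reporter; agonist potency from rising luciferase signal of a Gal4-LXR reporter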
Chain of Oxysterols receptor LXR-beta (P55055 whole entry, the tested form may be a part): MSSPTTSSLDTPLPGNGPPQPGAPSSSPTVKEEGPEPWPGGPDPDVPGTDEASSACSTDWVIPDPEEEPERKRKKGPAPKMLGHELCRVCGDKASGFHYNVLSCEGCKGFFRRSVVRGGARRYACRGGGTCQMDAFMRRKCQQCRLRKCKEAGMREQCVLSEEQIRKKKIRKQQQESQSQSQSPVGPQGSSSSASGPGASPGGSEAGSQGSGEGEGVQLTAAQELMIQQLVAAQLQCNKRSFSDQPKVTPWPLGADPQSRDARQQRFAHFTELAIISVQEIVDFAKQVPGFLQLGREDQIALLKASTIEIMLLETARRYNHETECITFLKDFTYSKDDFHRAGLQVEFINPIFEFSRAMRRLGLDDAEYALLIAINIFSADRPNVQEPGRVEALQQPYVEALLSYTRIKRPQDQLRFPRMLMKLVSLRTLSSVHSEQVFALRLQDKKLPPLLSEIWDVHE

[17] = viability loss in HEK293 cells – cell-based, luminescence, dry powder, set 12, cytotoxicity control, dose response (AID 743354); type: functional
[18] = viability loss in HepG2 liver cells – cell-based, luminescence, dry powder, set 9, cytotoxicity control, dose response (AID 743358); type: functional

In the case of `O=[N+]([O-])c1ccc(-c2c(-c3ccccc3)ncc3cc(F)ccc23)cc1`, the EC50 [1] is reported as > 29.9 µM (inactive), the IC50 [2] is reported as 4.77 µM (active) and the IC50 [3] is reported as > 29.9 µM (inactive). For the same molecule, the EC50 [4] was > 29.9 µM (inactive).

With `CCCCn1c(S)nnc1C12CC3CC(CC(C3)C1)C2` the IC50 [5] was > 122 µM (inactive).

In the case of `COC(=O)c1ccc(N2C(c3cc(OC)cc(OC)c3)=Cc3ccc(-c4cccnc4)cc3C2CC(=O)C2CC2)cc1` (stereo unspecified), the EC50 (Kallikrein-7) is reported as 38.9 µM (inactive).

For `C[C@@H]1CCCCO[C@H](CN(C)Cc2ccncc2)[C@H](C)CN([C@@H](C)CO)C(=O)c2cc(NC(=O)NC3CCCCC3)ccc2O1`, the AC50 (Paired box protein Pax-8) was 11.3 µM (active), the AC50 [6] was 36.7 µM (active) and the AC50 [7] was 36.1 µM (active). For the same molecule, the AC50 [8] was 18.7 µM (active), the AC50 [9] was 25.5 µM (active) and the AC50 [10] was 68.3 µM (active).

With `CC(=O)N1[C@H](CN(C(=O)c2ccc(F)cc2)C(C)C)[C@H](c2ccccc2)[C@@H]1CO` the AC50 [11] was 10.5 µM (active).

With `COc1ccc(S(=O)(=O)Nc2ccc3c(c2)CC(=O)N([C@H](C)CO)C[C@@H](C)[C@@H](CN(C)Cc2ccc(C(F)(F)F)cc2)O3)cc1` the AC50 [12] was > 30 µM (inactive).

For `CCc1ccc(C(=O)Nc2nnnn2CC)cc1`, the AC50 [13] was > 70 µM (inactive).

With `COc1cccc(S(=O)(=O)N2C[C@@H]3N[C@H](C2)[C@@H]3c2ccc(-c3cccc(C)c3)cc2)c1` the AC50 [14] was 16 µM (active).

With `CN1c2ccc(-c3ccc(C#N)cc3)cc2[C@@H]2[C@@H](CCN2C(=O)CC2CC2)[C@@H]1CO` the AC50 [15] was 19.8 µM (active).

In the case of `C/C(=N\Nc1ccccc1[N+](=O)[O-])c1ccccc1O`, the EC50 [16] is reported as > 67.6 µM (inactive) and the EC50 (cells) is reported as > 67.6 µM (inactive).

In the case of `COC(=O)CCCCCCC(=O)N1CC[C@@H]2[C@@H](CO)N(C)c3ccc(-c4cccc(F)c4)cc3[C@@H]21`, the AC50 [17] is reported as 46.1 µM (active) and the AC50 [18] is reported as > 52 µM (inactive).
